# Laboratory results published in patent publication US9656955B2, “Pyrrolidine derivatives, pharmaceutical compositions containing them, and their use in therapy” (AbbVie Deutschland GmbH & Co. KG, priority 2013, dated 2017).
# Read-outs that look alike come from different tables or passages of the source.
# Target: human GlyT1c transporter (Homo sapiens (Human), UniProt P48067)
# Assay: Radioligand binding assays using recombinant CHO cell membranes expressing human GlyT1
# [1] = radioligand binding, human GlyT1c transporter-expressing CHO cell membranes
# Chain of human GlyT1c transporter (P48067 whole entry): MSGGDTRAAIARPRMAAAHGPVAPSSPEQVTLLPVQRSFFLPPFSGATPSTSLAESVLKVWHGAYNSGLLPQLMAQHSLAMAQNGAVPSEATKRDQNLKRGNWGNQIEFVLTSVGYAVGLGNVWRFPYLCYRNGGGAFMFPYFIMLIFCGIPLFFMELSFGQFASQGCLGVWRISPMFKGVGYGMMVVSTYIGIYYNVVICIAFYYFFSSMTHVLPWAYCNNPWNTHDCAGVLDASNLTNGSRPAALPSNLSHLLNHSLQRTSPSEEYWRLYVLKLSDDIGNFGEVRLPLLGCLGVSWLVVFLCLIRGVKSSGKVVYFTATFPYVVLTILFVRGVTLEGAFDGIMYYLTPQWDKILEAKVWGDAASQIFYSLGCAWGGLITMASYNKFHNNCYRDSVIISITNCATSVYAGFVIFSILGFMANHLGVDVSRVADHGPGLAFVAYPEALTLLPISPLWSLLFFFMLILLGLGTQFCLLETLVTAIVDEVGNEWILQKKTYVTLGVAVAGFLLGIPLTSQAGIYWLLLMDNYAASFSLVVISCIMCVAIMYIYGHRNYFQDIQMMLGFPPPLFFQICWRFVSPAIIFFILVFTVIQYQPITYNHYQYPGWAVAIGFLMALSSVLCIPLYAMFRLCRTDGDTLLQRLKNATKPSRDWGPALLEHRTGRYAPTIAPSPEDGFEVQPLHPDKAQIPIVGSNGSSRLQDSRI
Ki [nM],Structure (SMILES),Ki [1] [nM]
–,"Cn1cnc(S(=O)(=O)N2C[C@@H]([C@@H]3CCCOC3)[C@H](Nc3cccc(OCC(F)(F)F)c3)C2)c1 (mixture of isomers) [Example 785, trans-1-[(1-methyl-1H-imidazol-4-yl)sulfonyl]-4-[(3S)-tetrahydro-2H-pyran-3-yl]-N-[3-(2,2,2-trifluoroethoxy)phenyl]pyrrolidin-3-amine]",≤ 100
≤ 10000,"Cn1cnc(S(=O)(=O)N2C[C@@H](Nc3cccc(F)n3)[C@H](c3ccc(F)cc3)C2)c1 (relative stereo) [Example 238, 6-fluoro-N-{trans-4-(4-fluorophenyl)-1-[(1-methyl-1H-imidazol-4-yl)sulfonyl]pyrrolidin-3-yl}pyridin-2-amine]",–
–,"Cn1cnc(S(=O)(=O)N2C[C@@H](C(=O)c3ccc(F)cc3)[C@H](c3ccc(F)cc3)C2)c1 (relative stereo) [Example 303, (4-fluorophenyl){trans-4-(4-fluorophenyl)-1-[(1-methyl-1H-imidazol-4-yl)sulfonyl]pyrrolidin-3-yl}methasone]",≤ 10000
≤ 100,"Cn1cnc(S(=O)(=O)N2C[C@@H](C(=O)c3ccc(Cl)c(F)c3)[C@H](c3ccc(F)cc3)C2)c1 (relative stereo) [Example 319, (4-Chloro-3-fluorophenyl){trans-4-(4-fluorophenyl)-1-[(1-methyl-1H-imidazol-4-yl)sulfonyl]pyrrolidin-3-yl}methanone]",–
–,"Cn1cnc(S(=O)(=O)N2C[C@@H](c3ccccc3)[C@](C)(NCc3ccc(Cl)cc3)C2)c1 (relative stereo) [Example 354, Trans-N-(4-chlorobenzyl)-3-methyl-1-[(1-methyl-1H-imidazol-4-yl)sulfonyl]-4-phenylpyrrolidin-3-amine]",≤ 1000
–,"Cn1cnc(S(=O)(=O)N2C[C@@H](c3ccccc3)[C@](C)(NCc3ccc(C(F)(F)F)cc3)C2)c1 (relative stereo) [Example 355, Trans-3-methyl-1-[(1-methyl-1H-imidazol-4-yl)sulfonyl]-4-phenyl-N-[4-(trifluoromethyl)benzyl]pyrrolidin-3-amine]",≤ 1000
≤ 100,"Cn1cnc(S(=O)(=O)N2C[C@@H](C(=O)c3cc(Cl)cc(Cl)c3)[C@H](c3ccc(F)cc3)C2)c1 (relative stereo) [Example 360, (3,5-Dichlorophenyl) {trans-4-(4-fluorophenyl)-1-[(1-methyl-1H-imidazol-4-yl)sulfonyl]pyrrolidin-3-yl}methanone]",–
–,"Cn1cnc(S(=O)(=O)N2C[C@@H](NC(=O)c3ccc(C(F)(F)F)cc3)[C@@](O)(c3ccccc3)C2)c1 (relative stereo) [Example 538, N-{Trans-4-hydroxy-1-[(1-methyl-1H-imidazol-4-yl)sulfonyl]-4-phenylpyrrolidin-3-yl}-4-(trifluoromethyl)benzamide]",≤ 10000
≤ 1000,"Cn1cnc(S(=O)(=O)N2C[C@@H](Nc3cc(C(F)(F)F)ncn3)[C@H](C3CCCO3)C2)c1 (relative stereo) [Example 853, N-[Trans-1-[(1-methyl-1H-imidazol-4-yl)sulfonyl]-4-(tetrahydrofuran-2-yl)pyrrolidin-3-yl]-6-(trifluoromethyl)pyrimidin-4-amine]",–
–,"Cn1cnc(S(=O)(=O)N2CC(c3ccccc3)N(Cc3cccc(Cl)c3)C2=O)c1 (stereo not drawn) [Example 343, 3-(3-chlorobenzyl)-1-[(1-methyl-1H-imidazol-4-yl)sulfonyl]-4-phenylimidazolidin-2-one]",≤ 10000
–,"Cn1cnc(S(=O)(=O)N2C[C@H](Nc3ccc(F)c(Cl)c3)[C@@H](c3ccc(F)cc3)C2)c1 [Example 352, (3R,4S)—N-(3-chloro-4-fluorophenyl)-4-(4-fluorophenyl)-1-[(1-methyl-1H-imidazol-4-yl)sulfonyl]pyrrolidin-3-amine]",≤ 10
–,"Cn1cnc(S(=O)(=O)N2C[C@H](Nc3cccc(C#N)c3)[C@@H](c3ccc(F)cc3)C2)c1 [Example 380, 3-({(3R,4S)-4-(4-fluorophenyl)-1-[(1-methyl-1H-imidazol-4-yl)sulfonyl]pyrrolidin-3-yl}-amino)benzonitrile]",≤ 100
